Reference: US20260015358A1, “BICYCLIC DERIVATIVES, COMPOSITIONS AND USES THEREOF” (Danatlas Pharmaceuticals Co., Ltd., priority 2023, published 2026)

Biological target: WRN [UniPro: Q14191 (WRN_HUMAN), N500-C946] (Homo sapiens (Human), UniProt Q14191)
Experiment: WRN unwinding assay (FORKF DNA, fluorescence)
Format: biochemical
Details: Table 14
Protocol: WRN unwinding assay was initiated to evaluate potential inhibitory effect of compounds for WEN helicase activity. WRN [UniPro: Q14191 (WRN_HUMAN), N500-C946] was expressed and purified in insect system and stored at −80° C. in aliquots. […] Compounds dissolved in DMSO (Sigma, D8418) were plated into a 96-well intermediate plate (BioFil, VWP-032-096) for 3-fold serial titration for 10 points using DMSO, and well-to-well transfer the titrated compounds into another 96-well intermediate plate including assay buffer in advance. Shake the 96-well intermediate plate at 600 rpm for 10 min. to fully mix. Specifically, a 3× working mixture of WRN was diluted to a concentration of 60 nM in assay buffer. […] After centrifuging at 1000 rpm and shaking at 500 rpm, the assay plate was pre-incubated for 30 min. Then, […] 3×FORKF DNA and ATP working mixture was dispensed into assay plate. Plate was sealed, centrifuged and incubated for an additional 40 min. at 25° C. […] Each concentration of compound was tested in duplicates in the assay plate. Average fluorescence signal of high control (Wells with 1% DMSO) was calculated as High Control (HC). Average fluorescence signal of low control (Wells with no WRN protein) was calculated as Low control (LC).
IC50 values were determined by fitting the data to the standard 4 parameters with Hill Slope using GraphPad Prism software.

Chain of WRN [UniPro: Q14191 (WRN_HUMAN), N500-C946] (Q14191 500-946): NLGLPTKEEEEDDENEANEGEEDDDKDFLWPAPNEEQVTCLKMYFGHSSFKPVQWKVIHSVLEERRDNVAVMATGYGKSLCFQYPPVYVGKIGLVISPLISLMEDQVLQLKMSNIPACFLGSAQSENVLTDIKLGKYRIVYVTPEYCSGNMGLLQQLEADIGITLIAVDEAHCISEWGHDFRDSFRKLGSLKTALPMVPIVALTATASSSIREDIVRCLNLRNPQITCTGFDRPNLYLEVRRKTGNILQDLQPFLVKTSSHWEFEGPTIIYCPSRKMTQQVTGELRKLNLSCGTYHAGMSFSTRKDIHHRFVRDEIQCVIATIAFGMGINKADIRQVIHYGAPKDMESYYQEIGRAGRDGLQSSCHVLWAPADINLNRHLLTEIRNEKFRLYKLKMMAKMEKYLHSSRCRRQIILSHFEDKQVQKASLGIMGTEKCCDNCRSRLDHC

Row | IC50 [nM] | SMILES
1 | > 1000 | CCc1c(N2CC3CN(C(=O)CNC(=O)c4ccccc4F)CC3C2)c(=O)n2nc(C3=CCOCC3)nc2n1CC(=O)Nc1ccc(C(F)(F)F)cc1Cl (stereo not drawn) [Example 140, N-(2-(5-(4-(2-((2-Chloro-4-(trifluoromethyl)phenyl)amino)-2-oxoethyl)-2-(3,6-di hydro-2H-pyran-4-yl)-5-ethyl-7-oxo-4,7-dihydro-[1,2,4]triazolo[1,5-a]pyrimidin-6-yl)hexahydropyrrolo[3,4-c]pyrrol-2(1H)-yl)-2-oxoethyl)-2-fluorobenzamide]
2 | 100 to 1000 | O=C(Cn1c(O)c(N2CCN(C(=O)CNC(=O)c3ccccc3)CC2)c(=O)n2nc(C3=CCOCC3)nc12)Nc1ccc(C(F)(F)F)cc1Cl [Example 142, N-(2-(4-(4-(2-((2-Chloro-4-(trifluoromethyl)phenyl)amino)-2-oxoethyl)-2-(3,6-dihydro-2H-pyran-4-yl)-5-hydroxy-7-oxo-4,7-dihydro-[1,2,4]triazolo[1,5-a]pyrimidin-6-yl)piperazin-1-yl)-2-oxoethyl)benzamide]
3 | 100 to 1000 | CCc1c(N2CCN(C(=O)CNC(=O)c3ccccc3F)CC2)c(=O)n2nc(C3=CCOCC3)nc2n1CC(=O)Nc1ccc(S(F)(F)(F)(F)F)cc1C [Example 145, N-(2-(4-(2-(3,6-Dihydro-2H-pyran-4-yl)-5-ethyl-4-(2-((2-methyl-4-(pentafluoro-16-sulfanyl)phenyl)amino)-2-oxoethyl)-7-oxo-4,7-dihydro-[1,2,4]triazolo[1,5-a]pyrimidin-6-yl)piperazin-1-yl)-2-oxoethyl)-2-fluorobenzamide]
4 | 100 to 1000 | CCc1c(N2CCN(C(=O)CNC(=O)c3ccccc3F)CC2)c(=O)n2nc(C3=CCOCC3)nc2n1CC(=O)Nc1sc(C)cc1Cl [Example 151, N-(2-(4-(4-(2-((3-chloro-5-methylthiophen-2-yl)amino)-2-oxoethyl)-2-(3,6-dihydro-2H-pyran-4-yl)-5-ethyl-7-oxo-4,7-dihydro-[1,2,4]triazolo[1,5-a]pyrimidin-6-yl)piperazin-1-yl)-2-oxoethyl)-2-fluorobenzamide]
5 | > 1000 | CCc1c(N2CCN(C(=O)CNC(=O)c3ccccc3F)CC2)c(=O)n2nc(C3=CCOCC3)nc2n1CC(=O)Nc1nnc(C(F)(F)F)s1 [Example 155, N-(2-(4-(2-(3,6-Dihydro-2H-pyran-4-yl)-5-ethyl-7-oxo-4-(2-oxo-2-((5-(trifluoromethyl)-1,3,4-thiadiazol-2-yl)amino)ethyl)-4,7-dihydro-[1,2,4]triazolo[1,5-a]pyrimidin-6-yl)piperazin-1-yl)-2-oxoethyl)-2-fluorobenzamide]
6 | > 1000 | CCc1c(N2CCN(C(=O)CNC(=O)c3ccccc3F)CC2)c(=O)n2nc(C3=CCOCC3)nc2n1CC(=O)Nc1nnc(C2CC2)s1 [Example 156, N-(2-(4-(4-(2-((5-Cyclopropyl-1,3,4-thiadiazol-2-yl)amino)-2-oxoethyl)-2-(3,6-dihydro-2H-pyran-4-yl)-5-ethyl-7-oxo-4,7-dihydro-[1,2,4]triazolo[1,5-a]pyrimidin-6-yl)piperazin-1-yl)-2-oxoethyl)-2-fluorobenzamide]
7 | 100 to 1000 | CCc1c(N2CCN(C(=O)CNC(=O)c3ccccc3F)CC2)c(=O)n2nc(C3=CCOCC3)nc2n1CC(=O)Nc1ncc(C(F)(F)F)s1 [Example 158, N-(2-(4-(2-(3,6-Dihydro-2H-pyran-4-yl)-5-ethyl-7-oxo-4-(2-oxo-2-((5-(trifluoromethyl)thiazol-2-yl)amino)ethyl)-4,7-dihydro-[1,2,4]triazolo[1,5-a]pyrimidin-6-yl)piperazin-1-yl)-2-oxoethyl)-2-fluorobenzamide]
8 | 100 to 1000 | CCc1c(N2CCN(C(=O)CNC(=O)c3ccccc3F)CC2)c(=O)n2nc(C3=CCOCC3)nc2n1CC(=O)Nc1nc(C)cs1 [Example 159, N-(2-(4-(2-(3,6-Dihydro-2H-pyran-4-yl)-5-ethyl-4-(2-((4-methylthiazol-2-yl)amino)-2-oxoethyl)-7-oxo-4,7-dihydro-[1,2,4]triazolo[1,5-a]pyrimidin-6-yl)piperazin-1-yl)-2-oxoethyl)-2-fluorobenzamide]
9 | > 1000 | CCc1c(N2CCN(C(=O)CNC(=O)c3ccccc3F)CC2)c(=O)n2nc(C3=CCOCC3)nc2n1CC(=O)Nc1cc(C)no1 [Example 160, N-(2-(4-(2-(3,6-Dihydro-2H-pyran-4-yl)-5-ethyl-4-(2-((3-methylisoxazol-5-yl)amino)-2-oxoethyl)-7-oxo-4,7-dihydro-[1,2,4]triazolo[1,5-a]pyrimidin-6-yl)piperazin-1-yl)-2-oxoethyl)-2-fluorobenzamide]
10 | 100 to 1000 | CCc1c(N2CCN(C(=O)CNC(=O)c3ccc(Cl)cc3)CC2)c(=O)n2nc(C3=CCOCC3)nc2n1CC(=O)Nc1ccc(C(F)(F)F)cc1Cl [Example 164, 4-Chloro-N-(2-(4-(4-(2-((2-chloro-4-(trifluoromethyl)phenyl)amino)-2-oxoethyl)-2-(3,6-dihydro-2H-pyran-4-yl)-5-ethyl-7-oxo-4,7-dihydro-[1,2,4]triazolo[1,5-a]pyrimidin-6-yl)piperazin-1-yl)-2-oxoethyl)benzamide]
11 | 100 to 1000 | CCc1c(N2CCN(C(=O)CNC(=O)OC(C)C)CC2)c(=O)n2nc(C3=CCOCC3)nc2n1CC(=O)Nc1ccc(C(F)(F)F)cc1Cl [Example 172, Isopropyl (2-(4-(4-(2-((2-chloro-4-(trifluoromethyl)phenyl)amino)-2-oxoethyl)-2-(3,6-dihydro-2H-pyran-4-yl)-5-ethyl-7-oxo-4,7-dihydro-[1,2,4]triazolo[1,5-a]pyrimidin-6-yl)piperazin-1-yl)-2-oxoethyl)carbamate]
12 | 100 to 1000 | CCc1c(N2CCN(C(=O)CNC(=O)c3cccc(Cl)c3)CC2)c(=O)n2nc(C3=CCOCC3)nc2n1CC(=O)Nc1ccc(C(F)(F)F)cc1Cl [Example 175, 3-Chloro-N-(2-(4-(4-(2-((2-chloro-4-(trifluoromethyl)phenyl)amino)-2-oxoethyl)-2-(3,6-dihydro-2H-pyran-4-yl)-5-ethyl-7-oxo-4,7-dihydro-[1,2,4]triazolo[1,5-a]pyrimidin-6-yl)piperazin-1-yl)-2-oxoethyl)benzamide]
13 | 100 to 1000 | CCc1c(N2CCN(C(=O)CNC(=O)c3ccccc3)CC2)c(=O)n2nc(Br)nc2n1CC(=O)Nc1ccc(C(F)(F)F)cc1Cl [Example 230, N-(2-(4-(2-Bromo-4-(2-((2-chloro-4-(trifluoromethyl)phenyl)amino)-2-oxoethyl)-5-ethyl-7-oxo-4,7-dihydro-[1,2,4]triazolo[1,5-a]pyrimidin-6-yl)piperazin-1-yl)-2-oxoethyl)benzamide]
14 | > 1000 | CCc1c(N2CCN(C(=O)CNC(=O)c3ccccc3F)CC2)c(=O)n2nc(OCCOC)nc2n1CC(=O)Nc1ccc(C(F)(F)F)cc1Cl [Example 240, N-(2-(4-(4-(2-((2-Chloro-4-(trifluoromethyl)phenyl)amino)-2-oxoethyl)-5-ethyl-2-(2-methoxyethoxy)-7-oxo-4,7-dihydro-[1,2,4]triazolo[1,5-a]pyrimidin-6-yl)piperazin-1-yl)-2-oxoethyl)-2-fluorobenzamide]
15 | 100 to 1000 | CCc1c(N2CCN(C(=O)CNC(=O)c3ccccc3F)CC2)c(=O)n2nc(N3CC(OC)C3)nc2n1CC(=O)Nc1ccc(C(F)(F)F)cc1Cl [Example 242, N-(2-(4-(4-(2-((2-Chloro-4-(trifluoromethyl)phenyl)amino)-2-oxoethyl)-5-ethyl-2-(3-methoxyazetidin-1-yl)-7-oxo-4,7-dihydro-[1,2,4]triazolo[1,5-a]pyrimidin-6-yl)piperazin-1-yl)-2-oxoethyl)-2-fluorobenzamide]
